These are literature values, as cited in patent US20200253951A1, “COMBINATION OF AN […] AGENT WITH […]/OR DO[…] FOR USE IN PREVENTING/STOPPING OF AXIAL MYOPIA IN HUMAN” (priority 2016, published 2020).

In one data set the test system is conjunctiva. The note with it: pediatric population, atropine 0,1%, 0,05% and 0,01%.
The subject of a further data set is axial myopia. The note with it: one drop of 1% Atropine collirium at bedtime, chinese children, placebo controlled.

Take `CN1[C@@H]2CC[C@H]1C[C@@H](OC(=O)C(CO)c1ccccc1)C2` (some centres unmarked) [Atropine]: in the data set on conjunctiva, the “subjects who developed ocular redness and itching” value was “around 5%”. For the same compound, the “subjects in whom development of axial myopia was halted (stopping the elongation of the bulb)” value in the data set on axial myopia is 90%.
